Assay results reported in the NIST ThermoML archive (doi:10.1021/je0340248).

Tests used:
[1] = 101.33 kPa, Liquid
[2] = xn = mol fraction of the nth substance listed; settings: 101 kPa, Liquid

CC(O)CO (configuration not stated) [1,2-propanediol]
[1]
Settings | mass density [kg/m3] | speed of sound [m/s] | viscosity [mPa·s]
298.15 K | 1032.75 | 1492 | 43.43
303.15 K | 1029.02 | – | –
308.15 K | 1025.4 | 1454 | 24.24
313.15 K | 1021.53 | – | –

OCCO [1,2-ethanediol]
[1]
Settings | mass density [kg/m3] | speed of sound [m/s] | viscosity [mPa·s]
298.15 K | – | 1662 | 14.82
303.15 K | 1106.63 | – | –
308.15 K | – | 1635 | 10.48
313.15 K | 1099.64 | – | –

CC(=O)OCCC(C)C [3-methylbutyl ethanoate]
[1]
Settings | mass density [kg/m3] | speed of sound [m/s] | viscosity [mPa·s]
298.15 K | 866.21 | 1195 | 0.781
303.15 K | 861.05 | – | –
308.15 K | 855.85 | 1154 | 0.747
313.15 K | 852.95 | – | –

CC(O)CO (configuration not stated) [1,2-propanediol] + CCCCOC(C)=O
[2]
Settings | mass density, 298.15 K [kg/m3] | mass density, 303.15 K [kg/m3] | mass density, 308.15 K [kg/m3] | mass density, 313.15 K [kg/m3] | speed of sound, 298.15 K [m/s] | speed of sound, 308.15 K [m/s] | viscosity, 298.15 K [mPa·s] | viscosity, 308.15 K [mPa·s]
x2 = 0.0445 | 1020.01 | 1016.1 | 1012.28 | 1008.28 | 1467 | 1429 | 31.87 | 18.51
x2 = 0.1493 | 993.58 | 989.44 | 985.19 | 980.98 | 1407 | 1372 | 16.1 | 10.19
x2 = 0.2487 | 972.28 | 968.01 | 963.42 | 959.09 | 1355 | 1322 | 8.935 | 6.083
x2 = 0.3511 | 953.32 | 948.95 | 944.08 | 939.65 | 1310 | 1280 | 5.175 | 3.762
x2 = 0.446 | 937.92 | 933.47 | 928.39 | 923.85 | 1276 | 1246 | 3.295 | 2.523
x2 = 0.4973 | 930.34 | 925.83 | 920.66 | 916.07 | 1260 | 1230 | 2.638 | 2.071
x2 = 0.5491 | 923.15 | 918.58 | 913.33 | 908.68 | 1247 | 1217 | 2.141 | 1.719
x2 = 0.6504 | 910.32 | 905.62 | 900.23 | 895.46 | 1226 | 1194 | 1.489 | 1.241
x2 = 0.7495 | 899.15 | 894.34 | 888.84 | 883.97 | 1210 | 1178 | 1.106 | 0.947
x2 = 0.8489 | 889.19 | 884.29 | 878.67 | 873.72 | 1200 | 1165 | 0.87 | 0.759
x2 = 0.946 | 880.55 | 875.62 | 869.86 | 864.9 | 1194 | 1155 | 0.727 | 0.64

OCCOCCO [diethylene glycol] + CCOC(C)=O
[2]
Settings | mass density, 298.15 K [kg/m3] | mass density, 303.15 K [kg/m3] | mass density, 308.15 K [kg/m3] | mass density, 313.15 K [kg/m3] | speed of sound, 298.15 K [m/s] | speed of sound, 308.15 K [m/s] | viscosity, 298.15 K [mPa·s] | viscosity, 308.15 K [mPa·s]
x2 = 0.0441 | 1103.89 | 1100.06 | 1096.4 | 1092.83 | 1557 | 1527 | 26.54 | 14.6
x2 = 0.1491 | 1081.32 | 1077.52 | 1073.43 | 1069.24 | 1501 | 1467 | 19.33 | 10.14
x2 = 0.2504 | 1059.83 | 1055.84 | 1051.57 | 1047.06 | 1444 | 1410 | 13.79 | 7.076
x2 = 0.3491 | 1039 | 1034.73 | 1030.34 | 1025.66 | 1393 | 1358 | 9.631 | 4.946
x2 = 0.4487 | 1017.94 | 1013.34 | 1008.79 | 1004.01 | 1346 | 1311 | 6.504 | 3.42
x2 = 0.5011 | 1006.8 | 1002.03 | 997.36 | 992.53 | 1322 | 1287 | 5.226 | 2.808
x2 = 0.5485 | 996.65 | 991.74 | 986.94 | 982.07 | 1301 | 1267 | 4.257 | 2.345
x2 = 0.6492 | 974.85 | 969.64 | 964.5 | 959.48 | 1261 | 1226 | 2.692 | 1.591
x2 = 0.7505 | 952.44 | 946.98 | 941.47 | 936.2 | 1223 | 1188 | 1.645 | 1.068
x2 = 0.8492 | 930.05 | 924.36 | 918.52 | 912.88 | 1189 | 1151 | 0.988 | 0.719
x2 = 0.9445 | 907.81 | 901.89 | 895.89 | 889.73 | 1157 | 1116 | 0.587 | 0.487

COC(C)=O [methyl ethanoate] + OCCO
[2]
Settings | mass density, 298.15 K [kg/m3] | mass density, 303.15 K [kg/m3] | mass density, 308.15 K [kg/m3] | mass density, 313.15 K [kg/m3] | speed of sound, 298.15 K [m/s] | speed of sound, 308.15 K [m/s] | viscosity, 298.15 K [mPa·s] | viscosity, 308.15 K [mPa·s]
x1 = 0.0444 | 1100.26 | 1096.48 | 1092.85 | 1089.11 | 1627 | 1600 | 11.86 | 8.678
x1 = 0.1488 | 1077.91 | 1073.64 | 1070.12 | 1065.97 | 1550 | 1521 | 7.177 | 5.649
x1 = 0.2505 | 1056.96 | 1052.6 | 1049.33 | 1045.05 | 1482 | 1452 | 4.535 | 3.788
x1 = 0.3485 | 1037.61 | 1033.23 | 1030.22 | 1025.91 | 1424 | 1391 | 2.996 | 2.623
x1 = 0.4411 | 1020.06 | 1015.63 | 1012.78 | 1008.44 | 1374 | 1338 | 2.078 | 1.882
x1 = 0.4856 | 1011.89 | 1007.39 | 1004.56 | 1000.19 | 1351 | 1315 | 1.758 | 1.614
x1 = 0.5507 | 1000.2 | 995.55 | 992.71 | 988.26 | 1320 | 1282 | 1.39 | 1.296
x1 = 0.6503 | 982.94 | 977.9 | 974.92 | 970.21 | 1276 | 1237 | 0.994 | 0.941
x1 = 0.7489 | 966.49 | 960.93 | 957.65 | 952.55 | 1237 | 1196 | 0.734 | 0.697
x1 = 0.8498 | 950.22 | 944.03 | 940.33 | 934.64 | 1199 | 1157 | 0.554 | 0.522
x1 = 0.9453 | 935.24 | 928.45 | 924.26 | 917.85 | 1167 | 1122 | 0.435 | 0.404

CC(O)CO (configuration not stated) [1,2-propanediol] + CCOC(C)=O
[2]
Settings | mass density, 298.15 K [kg/m3] | mass density, 303.15 K [kg/m3] | mass density, 308.15 K [kg/m3] | mass density, 313.15 K [kg/m3] | speed of sound, 298.15 K [m/s] | speed of sound, 308.15 K [m/s] | viscosity, 298.15 K [mPa·s] | viscosity, 308.15 K [mPa·s]
x2 = 0.0451 | 1024.21 | 1020.33 | 1016.53 | 1012.46 | 1463 | 1429 | 32.32 | 19.38
x2 = 0.1493 | 1005.58 | 1001.36 | 997.21 | 992.76 | 1401 | 1371 | 16.84 | 11.71
x2 = 0.2515 | 988.63 | 984.09 | 979.68 | 974.9 | 1343 | 1317 | 9.278 | 7.28
x2 = 0.3514 | 973.2 | 968.36 | 963.71 | 958.63 | 1294 | 1268 | 5.396 | 4.653
x2 = 0.4393 | 960.46 | 955.37 | 950.52 | 945.17 | 1255 | 1229 | 3.463 | 3.184
x2 = 0.5 | 952.1 | 946.85 | 941.84 | 936.31 | 1232 | 1205 | 2.597 | 2.469
x2 = 0.5497 | 945.49 | 940.12 | 934.99 | 929.3 | 1215 | 1186 | 2.075 | 2.014
x2 = 0.6505 | 932.74 | 927.13 | 921.75 | 915.78 | 1186 | 1153 | 1.357 | 1.351
x2 = 0.7495 | 921.01 | 915.21 | 909.59 | 903.37 | 1164 | 1128 | 0.93 | 0.928
x2 = 0.8499 | 909.87 | 903.92 | 898.1 | 891.68 | 1149 | 1109 | 0.661 | 0.645
x2 = 0.9487 | 899.61 | 893.57 | 887.61 | 881.09 | 1140 | 1098 | 0.491 | 0.459

OCCOCCOCCO [triethylene glycol] + COC(C)=O
[2]
Settings | mass density, 298.15 K [kg/m3] | mass density, 303.15 K [kg/m3] | mass density, 308.15 K [kg/m3] | mass density, 313.15 K [kg/m3] | speed of sound, 298.15 K [m/s] | speed of sound, 308.15 K [m/s] | viscosity, 298.15 K [mPa·s] | viscosity, 308.15 K [mPa·s]
x2 = 0.0455 | 1115.19 | 1111.41 | 1107.51 | 1105.03 | 1598 | 1572 | 32.01 | 19.45
x2 = 0.1522 | 1103.73 | 1099.72 | 1095.8 | 1093.05 | 1559 | 1533 | 25.74 | 15.15
x2 = 0.2512 | 1091.78 | 1087.49 | 1083.5 | 1080.38 | 1521 | 1493 | 19.76 | 11.49
x2 = 0.3504 | 1078.53 | 1073.91 | 1069.84 | 1066.3 | 1482 | 1452 | 14.27 | 8.336
x2 = 0.4457 | 1064.43 | 1059.49 | 1055.35 | 1051.39 | 1446 | 1414 | 9.869 | 5.882
x2 = 0.49 | 1057.35 | 1052.25 | 1048.08 | 1043.93 | 1428 | 1396 | 8.158 | 4.935
x2 = 0.5519 | 1046.77 | 1041.46 | 1037.27 | 1032.85 | 1402 | 1369 | 6.128 | 3.806
x2 = 0.6512 | 1027.79 | 1022.13 | 1017.92 | 1013.08 | 1357 | 1323 | 3.687 | 2.422
x2 = 0.7516 | 1005.3 | 999.28 | 995.06 | 989.76 | 1305 | 1268 | 2.075 | 1.467
x2 = 0.8513 | 978.49 | 972.08 | 967.82 | 962.01 | 1246 | 1206 | 1.103 | 0.854
x2 = 0.9424 | 948.8 | 941.98 | 937.63 | 931.21 | 1188 | 1143 | 0.587 | 0.501
